Measured values published in US9689040B2, “Selective inhibitors of tumor-initiating cells” (Children's Medical Center Corporation, priority 2011, dated 2017).
“Also recorded” adds a separate entry of the source.

Assays:
[1] = test system: luminal MCF7 and BT-474 cells; assay: Viability of breast cancer cell lines treated with bortezomib (CellTiterGlo); assay type: cell-based, human
proteasome [2] = target: T1, proteasome (Homo sapiens, UniProt P28074); assay: Proteasome activity in BPLER and HMLER cells (ProteaGlo assay); conditions: 6 hr after treatment
T1 sequence (P28074 60-263): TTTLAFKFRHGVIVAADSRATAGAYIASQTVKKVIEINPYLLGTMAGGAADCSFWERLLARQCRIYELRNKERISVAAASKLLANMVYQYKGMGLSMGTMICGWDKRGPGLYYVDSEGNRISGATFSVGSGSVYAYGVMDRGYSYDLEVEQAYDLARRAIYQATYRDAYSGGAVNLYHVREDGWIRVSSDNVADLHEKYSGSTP

BPLER cells [3] = assay: Cell viability after drug treatment (CellTiterGlo / Trypan-Blue); assay type: cell-based, human
proteasome [4] = target: T1, proteasome; assay: Proteasome activity in BPLER tumors after treatment (ProteasomeGlo assay); assay type: in vivo, mouse; conditions: after 18 hours
Procedure: (6A) Proteasome activity in protein lysates from BPLER tumors 18 hours after intratumoral (i.t.), intraperithoneal (i.p) or intravenous (i.v.) treatment with bortezomib at the indicated dose, as determined by ProteasomeGlo assay. Proteasome activity in BPLER treated with bortezomib in vitro is shown as control. (6B-6E) Mean tumor volume (6B, 6D) in BPLER tumor-bearing mice after treatment with bortezomib or DMSO at the indicated dose, schedule and route of administration. Median tumor weight was measured at time of sacrifice (6C, 6E). […] (6F) Immunoblot analysis of protein lysates from BPLER tumors 18 hours after 1 intravenous dose of bortezomib at 1.6 mg/kg bortezomib or DMSO, showing efficient Noxa induction and caspase-3 and PARP1 cleavage after bortezomib treatment. (6G) Mean tumor volume in MB-468 tumor-bearing mice after intravenous treatment with 1.6 mg/kg bortezomib weekly. (6H) Schematic diagram illustrating generation of mouse TNBC primary tumor fragments for bortezomib-based therapy studies. […] 4T1-E tumors are shown as control. (6I, 6J) Mean V22 tumor volume (6I) after weekly intravenous infusion of bortezomib (1.6 mg/kg) or DMSO. Treatment was started 2 days after implantation of primary tumor fragments. […] The top and the bottom of each box represent the 75th and 25th percentile of tumor weight, respectively. Upper and lower whiskers represent maximum and minimum tumor weight, respectively. The black horizontal band in each box corresponds to median tumor weight.
Our data thus far indicate that highly malignant epithelial TNBC cells are selectively susceptible to proteasome inhibition. Bortezomib is already in the clinic for treatment of multiple myeloma and other lymphomas. […] To assess therapeutic efficacy, we administered bortezomib every 3 days (0.8 mg/kg i.t.) or weekly (1.6 mg/kg i.v.) after BPLER tumors, implanted in the flank of Nu/J mice, became palpable. BPLER tumor outgrowth was assessed by tumor volume during the treatment period and by tumor weight at the time of sacrifice. […]

BPE cells = assay: Apoptosis (Annexin V/PI flow cytometry, caspase 3 and PARP cleavage immunoblot); assay type: cell-based, human; conditions: clinically relevant / low dose, 24 hours
Procedure: (§1) BPLER were used as control. […] The percentage of double-positive cells is indicated.
(§2) To further define factors underlying such properties of BPLER cells, we first determined the molecular mechanism by which proteasome inhibition affects the growth of these cells.
(§3) Immunoblot was performed as described^41. Primary antibodies were as follows: cleaved Caspase 3 (Cell Signaling, rabbit polyclonal, 1:1000), PARP1 (Santa Cruz, rabbit polyclonal, 1:500), MCL1 (Cell Signaling, Rabbit polyclonal, 1:1000), Bim (Santa Cruz, rabbit polyclonal, 1:500), Bik (Cell Signaling, rabbit polyclonal, 1:1000), Puma (Cell Signaling, rabbit polyclonal, 1:1000), Noxa (Calbiochem, mouse monoclonal, 1:500), Bid (Santa Cruz, rabbit polyclonal, 1:500), Bad (Santa Cruz, rabbit polyclonal, 1:500). Antibodies were diluted in 5% milk in TBS-T and incubated O.N. at 4° C. Secondary mouse and rabbit HRP-conjugated antibodies were from Amersham. Protein signal was detected using the ECL Plus kit (Amersham). For flow cytometry, cells were stained as previously described^33, using the following fluorescent-conjugated antibodies: CD44 (BD Biosciences), CD24 (BD Biosciences), CD326 (ESA, Biolegend), Annexin V (Invitrogen). For immunofluorescence microscopy, cells were fixed in 2% PFA for 10 min, permeabilized with 1% Triton X in PBS for 5 min, and incubated with primary antibodies in 0.5% Triton X, 1% FBS in PBS for 30 min at RT. Antibodies were: CK18 (Santa Cruz, mouse monoclonal, 1:100) and CK14 (Millipore, mouse monoclonal, 1:100). After washing the cells were stained sequentially with AlexaFluor647-conjugated secondary antibody (Invitrogen, 1:200) and DAPI (Sigma, 1:5000). For immunohistochemistry, BPLER tumor sections were prepared from paraffin-embedded tissues, deparaffinized and treated with 10% citrate buffer for 15 min. Staining was performed using a BIOGENEX IHC DAB kit (Biogenex) following the manufacturer's protocol. Primary antibodies were: CK14 (Millipore, mouse monoclonal, 1:100), CK5 (Millipore, mouse monoclonal, 1:100), HH3 (Cell Signaling, rabbit polyclonal, 1:100), ER (Abcam, mouse monoclonal, 1:100), Vimentin (Invitrogen, mouse monoclonal 1:100), Ki67 (Millipore, mouse monoclonal, 1:100).

BPLER cells [5] = assay: as above; assay type: cell-based, human; conditions: clinically relevant / low dose, 24 hours
Procedure: as §1, §2, §3

HMLER cells = assay: as above; assay type: cell-based, human; conditions: clinically relevant / low dose, 24 hours
Procedure: as §1, §2, §3

CC(C)C[C@H](NC(=O)[C@H](Cc1ccccc1)NC(=O)c1cnccn1)B(O)O [bortezomib]
cytotoxicity at 0.0125 µM ([1]; Homo sapiens, luminal cells, 12.5 nM, 24 hr, read-out: decrease of cell viability): 5%
sensitivity of ER+ and HER2+ breast cancer cell lines ([1]; MCF7, BT-474): resistant
proteasomal activity in BPLER and HMLER (proteasome [2]): similarly inhibited proteasome activity
sensitivity of BPLER relative to HMLER cells (viability) (BPLER cells [3]; increasing doses, 24 hr): more sensitive
response of BPLER cells at confluence (BPLER cells [3]; non-dividing (confluent) cells): became resistant
proteasome inhibition in the tumor (proteasome [4]; 1.6 mg/kg i.v.): efficient proteasome activity inhibition
proteasome inhibition in the tumor (proteasome [4]; 1 dose 0.8 mg/kg i.p. or i.v.): less effective
proteasome inhibition in the tumor (proteasome [4]; 1 dose 0.8 mg/kg i.t.): Nearly complete proteasome inhibition
apoptosis (cleavage of caspase 3 and PARP) (BPE cells): resistant to bortezomib-induced apoptosis
apoptosis (cleavage of caspase 3 and PARP) (BPLER cells [5]): marked cleavage; also recorded: died of apoptosis
apoptosis (cleavage of caspase 3 and PARP) (HMLER cells): only partially; also recorded: minimal signs of apoptosis
